Tested on: CYP3A4/5
Assay: Metabolite inhibitory complex (MIC) formation, human liver microsomes with high CYP3A4/5 activity
Type: in vitro ADME
Conditions: 3 μM, scans 380-520 nm for 15 minutes
Experimental: In an attempt to determine the mechanism in which boceprevir inactivated CYP3A4/5, an experiment was conducted to determine if boceprevir formed a spectrophotometrically detectable metabolite inhibitory complex with cytochrome P450 (i.e., peaks at approximately 452 nm).
In this experiment (summarized in Table 4), an individual human liver microsomal sample containing high levels of CYP3A4/5 activity (final protein concentration of 1 mg/mL, 1.7 nmol P450/mg protein) was added to the sample and reference cuvettes in a buffer mixture consisting of potassium phosphate (50 mM), and MgCl2 (3 mM) for a final volume of 980 μL. Baseline scans from 380 to 520 nm were recorded on a Varian Cary 100 BIO UV/Vis dual beam spectrophotometer. Boceprevir was then added to the sample cuvette in 10 μL of methanol for a final incubation concentration of 3 μM. A corresponding volume of the solvent (10 μL of methanol), used to dissolve boceprevir, was added to the reference. The reactions were initiated with 10 μL of β-NADPH added to both cuvettes to give a final volume of 1 mL. Continuous scans were conducted every minute for 15 minutes after the addition of β-NADPH. All scans were conducted at approximately 37° C. […]

CC(C)(C)NC(=O)NC(C(=O)N1CC2C([C@H]1C(=O)NC(CC1CCC1)C(=O)C(N)=O)C2(C)C)C(C)(C)C (stereo partly drawn) [Boceprevir, (1R,2S,5S)—N-[(2Ξ)-4-amino-1-cyclobutyl-3,4-dioxobutan-2-yl]-3-{(2S)-2-[(tert-butylcarbamoyl)amino]-3,3-dimethylbutanoyl}-6,6-dimethyl-3-azabicyclo[3.1.0]hexane-2-carboxamide]
Formation of a spectrally visible metabolite inhibitory complex (MIC): did not appear to form a spectrally visible MIC

Reference: US20140162942A1, “INHIBITION OF CYP3A DRUG METABOLISM” (priority 2010, published 2014)
